PubChem BioAssay (NCI)
Values joined by “and” are separate entries in the source; they are usually repeats but may differ in a detail not shown here. Identical values can stand only once.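 Step 1: Grow cells in 96-well plates. Step 2: Expose to compound for 48 hours at 5 concentrations. Step 3: Interpolate endpoints linearly; if unreached, use highest concentration. The concentration for full growth arrest is given as TGI.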

Experiments:
Test in all cases: NCI-60 cell line screen, 48 h
[1] = tested on: 786-0 renal
[2] = tested on: ACHN renal
[3] = tested on: CAKI-1 renal
[4] = tested on: HCC-2998 colon
[5] = tested on: IGROV1 ovarian
[6] = tested on: LOX IMVI melanoma
[7] = tested on: OVCAR-3 ovarian
[8] = tested on: RPMI-8226 leukemia
[9] = tested on: SF-268 CNS
[10] = tested on: SF-295 CNS
[11] = tested on: SF-539 CNS
[12] = tested on: SK-MEL-28 melanoma
[13] = tested on: SK-OV-3 ovarian
[14] = tested on: SN12C renal
[15] = tested on: SNB-19 CNS
[16] = tested on: SNB-75 CNS
[17] = tested on: T-47D breast
[18] = tested on: TK-10 renal
[19] = tested on: U251 CNS
[20] = tested on: UACC-257 melanoma

SMILES	TGI [1]	TGI [2] [µM]	TGI [3] [µM]	TGI [4]	TGI [5]	TGI [6]	TGI [7] [µM]	TGI [8]	TGI [9] [µM]	TGI [10] [µM]	TGI [11] [µM]	TGI [12] [µM]	TGI [13] [µM]	TGI [14] [µM]	TGI [15] [µM]	TGI [16] [µM]	TGI [17]	TGI [18] [µM]	TGI [19]	TGI [20] [µM]
CC(C)CC1C(=O)NCCC(NC(=O)C(N)Cc2ccc(O)cc2)C(=O)NC(Cc2ccccc2)C(=O)NC(Cc2ccccc2)NC1=O (centres undefined)	> 100 µM	> 100	> 100	> 100 µM	> 100 µM	> 100 µM	> 100	> 100 µM	> 100	> 100	> 100	> 100	> 100	> 100	> 100	> 100	> 100 µM	> 100	> 100 µM	> 100
Nc1nc(N)c(NC(=O)CCCO)c(=O)[nH]1	> 100 µM	> 100	> 100	> 100 µM	> 100 µM	> 100 µM	> 100	> 100 µM	> 100	> 100	> 100		> 100	> 100	> 100	> 100	> 100 µM	> 100	> 100 µM	> 100
O/C(=C\c1nc2ccccc2nc1/C=C(\O)c1ccc(Cl)cc1)c1ccccc1	> 100 µM	> 100	65.4	> 100 µM	> 100 µM	> 100 µM		> 100 µM	> 100	> 100	> 100	> 100	> 100	> 100	> 100	72.8	> 100 µM	> 100	> 100 µM	> 100
Cc1ccc(C)n1-n1c(Cc2ccccc2)n[nH]c1=O	> 100 µM	> 100	> 100	> 100 µM	> 100 µM	> 100 µM	> 100	> 100 µM	> 100	> 100		> 100	> 100	> 100	> 100	> 100	> 100 µM	> 100	> 100 µM	> 100
CC(C)(C)c1cc(C(C)(C)C)c(SS(=O)(=O)O)c(O)c1O	> 100 µM	> 100	> 100		> 100 µM	> 100 µM	> 100	> 100 µM	> 100	> 100	37.4	> 100	> 100	> 100	> 100	99.1	> 100 µM	> 100	> 100 µM	> 100
Cc1nc2sc3ccccc3n2c(=O)c1N=Nc1ccc(Br)cc1	> 100 µM	> 100	> 100		> 100 µM	> 100 µM	> 100	> 100 µM	> 100	> 100	> 100	> 100	> 100	> 100	> 100	> 100	> 100 µM	> 100	> 100 µM	> 100
Cc1ccc(NN=NCCCCN)cc1	> 100 µM	> 100	> 100	> 100 µM	> 100 µM	> 100 µM		> 100 µM	> 100	> 100	> 100		> 100	> 100	> 100	> 100	> 100 µM	> 100		> 100
COC1CC(OC2C(C)OC(OC3C(C)OC(OC4C(O)CC(O[C@H]5CC[C@@]6(C)C(=CC[C@]7(O)[C@@H]6C[C@@H](OC(=O)/C=C/c6ccccc6)[C@@]6(C)[C@]7(O)CC[C@@]6(O)C(C)=O)C5)OC4C)CC3OC)CC2OC)OC(C)C1O (some centres undefined)	> 6.25 µM	> 6.25	> 6.25	> 6.25 µM	> 6.25 µM	> 6.25 µM	> 6.25	> 6.25 µM	> 6.25	> 6.25	> 6.25		> 6.25	> 6.25	> 6.25	> 6.25	> 6.25 µM	> 6.25	> 6.25 µM	> 6.25
NNC(=O)c1ccccc1NC(=O)/C(=C/c1ccccc1O)NC(=O)c1ccccc1	> 100 µM	32.7	31.8	> 100 µM	> 100 µM	> 100 µM		> 100 µM	28.1	> 100	92.4	> 100	> 100	> 100	79.7	25.9	> 100 µM	> 100	> 100 µM	> 100
COc1cc(CNc2ccc3nc4n(c(=O)c3c2)CCCCC4)cc(OC)c1OC	> 100 µM	> 100	> 100		> 100 µM	> 100 µM	> 100	> 100 µM	> 100	> 100	> 100	> 100	> 100	> 100		> 100	> 100 µM	> 100	> 100 µM	75.8
O=C(CC(C(=O)c1ccco1)c1ccsc1)c1ccco1 (centres undefined)	> 100 µM	> 100	> 100	> 100 µM	> 100 µM	> 100 µM	> 100	> 100 µM	> 100	> 100	> 100	> 100	> 100	> 100		> 100	> 100 µM	> 100	> 100 µM	> 100
N#Cc1c(Cl)cccc1Oc1ccc(S(=O)(=O)/N=C(\NN)Nc2ccc(Cl)cc2)cc1	61.1 µM	> 100	> 100		43.4 µM	31.4 µM	40.2	59.3 µM	48.9	70.3	36.6	> 100	> 100	64	> 100	54.7	48.1 µM	79.6	> 100 µM	72.3
Oc1cc(Br)cc2cccnc12	38 µM	> 69	39	98.2 µM	8.22 µM		13.7	5.68 µM	> 42.2	32.7	> 45.1	> 100	79.9	> 55.6	> 100	> 91.5	25.4 µM	> 100	> 58.4 µM	6.93
COc1cc(C2c3cc(O)c(OC)cc3C3OCC2C3CO)ccc1O (centres undefined)	> 100 µM	> 100	> 100	> 100 µM		> 100 µM	> 100	> 100 µM	> 100	> 100	> 100	> 100	> 100		> 100	> 100	> 100 µM	> 100	> 100 µM	
c1ccc(N=C(Nc2ccccc2)N2CCCCC2)cc1	> 100 µM	> 100	> 100		> 100 µM	> 100 µM	> 100	> 100 µM	> 100	> 100		> 100	> 100	> 100	> 100	> 100	> 100 µM	> 100	> 100 µM	68.9
O=C(O)CN1CCN2CCOCCOCCN(CC1)CCN(CC(=O)O)CC2	> 100 µM	> 100	> 100		> 100 µM	> 100 µM	> 100	> 100 µM		> 100	> 100	> 100	> 100	> 100	> 100	> 100	> 100 µM	> 100	> 100 µM	> 100
Cc1c(C)c2c(c(N)c1C#N)C(=O)N(Nc1ccccc1)C2=O	> 100 µM	> 100	> 100	> 100 µM	> 100 µM	> 100 µM	> 100	> 100 µM	> 100	> 100	> 100	> 100		> 100	> 100	> 100	> 100 µM	> 100	> 100 µM	> 100
CC(C)(C)c1cc(C2NCCO2)cc(C(C)(C)C)c1O (centres undefined)	> 100 µM	> 100	> 100		> 100 µM	> 100 µM	> 100	> 100 µM	> 100	> 100	> 100	> 100	> 100	> 100		30.6	27.6 µM	> 100	> 100 µM	> 100
CN(C)c1ccc(/C=c2/c3ccccc3n3nc4ccccc4c23)cc1	> 100 µM	> 100	> 100		> 100 µM	> 100 µM	> 100	39.1 µM	> 100	70.6	84.8	> 100	> 100	> 100	> 100	27.7	55.4 µM	> 100	> 100 µM	> 100
COc1cc(OC)c2c(=O)cc(-c3ccccc3F)[nH]c2c1	> 100 µM	> 100	> 100	52.3 µM	> 100 µM	> 100 µM	> 100	> 100 µM	> 100	> 100		> 100	> 100	> 100	73.6	> 100	> 100 µM	84.4	> 100 µM	> 100
CC(C)(C)c1cc(-c2cc(C(C)(C)C)n(-c3ccccc3)n2)nn1-c1ccccc1	> 100 µM	> 100	> 100	> 100 µM	> 100 µM	> 100 µM	> 100	> 100 µM	> 100	> 100	> 100	> 100	> 100	> 100		> 100	> 100 µM	> 100	> 100 µM	> 100
CS/C1=C(\c2ccc(C)cc2)N(c2ccccc2)C(=O)C(=O)N(c2ccccc2)/C(c2ccc(C)cc2)=C(/SC)SS1	> 100 µM	> 100	> 100	> 100 µM	> 100 µM	> 100 µM	> 100	> 100 µM	> 100	> 100	> 100	> 100		> 100	> 100	> 100	> 100 µM	> 100	> 100 µM	> 100
CC(=O)OCC(OC(C)=O)C(OC(C)=O)C(OC(C)=O)C(C=NN(C(C)=O)S(=O)(=O)c1ccc(/C=C2\NC(=O)N(C)C2=O)cc1)OC(C)=O (centres undefined)	80 µM and 68.9 µM	> 100	> 100	32 µM and > 100 µM	75.2 µM and > 100 µM	33 µM and 66 µM	> 100	49.8 µM and 65.8 µM	> 100	> 100	56.5		> 100	> 100	> 100	> 100	76.1 µM and 91.3 µM	40.4	66 µM and > 100 µM	> 100
CCOP(=O)(CCCC(O)CNc1cc(Cl)nc(N)n1)OCC (centres undefined)	> 100 µM	> 100	> 100	> 100 µM	> 100 µM	> 100 µM	> 100	> 100 µM	> 100	> 100	> 100	> 100	> 100	> 100		> 100	> 100 µM	> 100	> 100 µM	> 100
